Measured values taken from patent US7265129B2, “Anti-infective biaryl compounds” (priority 2002, dated 2007).

What was measured:
[1] = tested on: S. aureus ATCC 33591; test: MIC, NCCLS broth microdilution, S. aureus ATCC 33591; assay type: cell-based, Staphylococcus aureus
Excerpt: (§1) It vitro biological activity data were collected for a variety of microorganisms, including Bacillus cereus (ATCC 11778), Staphylococcus aureus (ATCC 33591; ATCC 27660, a methicillin resistant strain (MRSA); ATCC 13709, a methicillin sensitive strain (MSSA)), Enterococcus faecalis (ATCC 29212), and Streptococcus pneumoniae (ATCC 49619). Additionally, antifungal activity data were collected for Candida albicans (ATCC 38247).
(§2) Compounds according to this invention were screened for their in vitro activities against selected species of bacteria and fungi. The minimal inhibition concentration (MIC) of these compounds was determined using the National Committee for Clinical Laboratory Standards (NCCLS) broth microdilution assay in microtiter plates, as set forth in: (1) the guidelines of the National Committee for Clinical Laboratory Standards (NCCLS) Document M7-A4 (NCCLS, 1997); (2) the guidelines of the National Committee for Clinical Laboratory Standards (NCCLS) Document M11-A4 (NCCLS, 1997); and (3) the guidelines and reference method of the National Committee for Clinical Laboratory Standards (NCCLS) Document M27-T (NCCLS, 1995). For antifungal assays, the method recommended in Murray, P R., 1995 Manual of Clinical Microbiology (ASM Press, Washington, D.C.), was employed.

[2] = tested on: E. faecalis ATCC 29212; test: MIC, NCCLS broth microdilution, E. faecalis; assay type: cell-based, Enterococcus faecalis
Excerpt: as §1, §2

[3] = tested on: S. aureus ATCC 13709; test: MIC, NCCLS broth microdilution, S. aureus MSSA; assay type: cell-based, Staphylococcus aureus; conditions: S. aureus ATCC 13709, methicillin sensitive strain (MSSA)
Excerpt: as §1, §2

[4] = tested on: C. albicans ATCC 38247; test: MIC, antifungal assay, C. albicans; assay type: cell-based, Candida albicans
Excerpt: as §1, §2

[5] = tested on: S. pneumoniae ATCC 49619; test: MIC, NCCLS broth microdilution, S. pneumoniae; assay type: cell-based, Streptococcus pneumoniae
Excerpt: as §1, §2

[6] = tested on: S. aureus ATCC 27660; test: MIC, NCCLS broth microdilution, S. aureus MRSA; assay type: cell-based, Staphylococcus aureus; conditions: S. aureus ATCC 27660, methicillin resistant strain (MRSA)
Excerpt: as §1, §2

[7] = tested on: B. cereus ATCC 11778; test: MIC, NCCLS broth microdilution, B. cereus; assay type: cell-based, Bacillus cereus
Excerpt: as §1, §2

Structure (SMILES)	Minimum Inhibitory Concentration (MIC), organism F [1]	Minimum Inhibitory Concentration (MIC), organism C [2]	Minimum Inhibitory Concentration (MIC), organism D [3]	Minimum Inhibitory Concentration (MIC), organism B [4]	Minimum Inhibitory Concentration (MIC), organism G [5]	Minimum Inhibitory Concentration (MIC), organism E [6]	Minimum Inhibitory Concentration (MIC), organism A [7]
Cc1cccc2nc(-c3cc(NC(=O)c4cc(NC(=O)c5cc6ccccc6cn5)cn4C)cn3C)[nH]c12 [Compound A-3]	>32 µg/mL	>32 µg/mL	>32 µg/mL	>32 µg/mL	>32 µg/mL	>32 µg/mL	>32 µg/mL
Cn1cc(NC(=O)c2cc3ccccc3cn2)cc1C(=O)Nc1cc(-c2nc3cc(O)ccc3[nH]2)n(C)c1 [Compound A-6]	+++ (MIC ≦ 4 μg/mL)	+++ (MIC ≦ 4 μg/mL)	+++ (MIC ≦ 4 μg/mL)	>32 µg/mL	+++ (MIC ≦ 4 μg/mL)	+++ (MIC ≦ 4 μg/mL)	+++ (MIC ≦ 4 μg/mL)
Cn1cc(NC(=O)c2cc3ccccc3cn2)cc1C(=O)Nc1cc(-c2nc3ccc(N)cc3[nH]2)n(C)c1 [Compound A-8]	+++ (MIC ≦ 4 μg/mL)	+++ (MIC ≦ 4 μg/mL)	+++ (MIC ≦ 4 μg/mL)	>32 µg/mL	+++ (MIC ≦ 4 μg/mL)	+++ (MIC ≦ 4 μg/mL)	++ (4 < MIC < 12 μg/mL)
Cn1cc(NC(=O)c2cc3ccccc3cn2)cc1C(=O)Nc1cc(-c2nc3ccc(OC(=O)CCN4CCOCC4)cc3[nH]2)n(C)c1 [Compound A-9]	+++ (MIC ≦ 4 μg/mL)	+++ (MIC ≦ 4 μg/mL)	+++ (MIC ≦ 4 μg/mL)	>32 µg/mL	+++ (MIC ≦ 4 μg/mL)	+++ (MIC ≦ 4 μg/mL)	+++ (MIC ≦ 4 μg/mL)
Cn1cc(NC(=O)c2cc3ccccc3cn2)cc1C(=O)Nc1cc(-c2nc3ccc(OCCN4CCOCC4)cc3[nH]2)n(C)c1 [Compound A-10]	+++ (MIC ≦ 4 μg/mL)	+++ (MIC ≦ 4 μg/mL)	+++ (MIC ≦ 4 μg/mL)	>32 µg/mL	+++ (MIC ≦ 4 μg/mL)	+++ (MIC ≦ 4 μg/mL)	+++ (MIC ≦ 4 μg/mL)
Cn1cc(NC(=O)c2cc3ccccc3cn2)cc1C(=O)Nc1cc(-c2nc3ccc(NC(=O)CCN4CCOCC4)cc3[nH]2)n(C)c1 [Compound A-11]	+++ (MIC ≦ 4 μg/mL)	+++ (MIC ≦ 4 μg/mL)	+++ (MIC ≦ 4 μg/mL)	>32 µg/mL	+++ (MIC ≦ 4 μg/mL)	+++ (MIC ≦ 4 μg/mL)	+++ (MIC ≦ 4 μg/mL)
CN(C)CCCn1cc(NC(=O)c2cc3ccccc3cn2)cc1C(=O)Nc1cc(-c2nc3ncccc3[nH]2)n(C)c1 [Compound A-12]	+++ (MIC ≦ 4 μg/mL)	+++ (MIC ≦ 4 μg/mL)	+++ (MIC ≦ 4 μg/mL)	>32 µg/mL	+++ (MIC ≦ 4 μg/mL)	+++ (MIC ≦ 4 μg/mL)	+++ (MIC ≦ 4 μg/mL)
CN(C)CCCn1cc(NC(=O)c2cc3ccccc3cn2)cc1C(=O)Nc1cc(-c2nc3ccncc3[nH]2)n(C)c1 [Compound A-13]	+++ (MIC ≦ 4 μg/mL)	+++ (MIC ≦ 4 μg/mL)	+++ (MIC ≦ 4 μg/mL)	>32 µg/mL	+++ (MIC ≦ 4 μg/mL)	+++ (MIC ≦ 4 μg/mL)	+++ (MIC ≦ 4 μg/mL)
Cn1cc(NC(=O)c2cc3ccccc3cn2)cc1C(=O)Nc1cc(-c2nc3ccncc3[nH]2)n(C)c1 [Compound A-14]	+++ (MIC ≦ 4 μg/mL)	+++ (MIC ≦ 4 μg/mL)	+++ (MIC ≦ 4 μg/mL)	>32 µg/mL	+++ (MIC ≦ 4 μg/mL)	+++ (MIC ≦ 4 μg/mL)	+++ (MIC ≦ 4 μg/mL)
CN(C)CCCn1cc(NC(=O)c2cc3ccccc3cn2)cc1C(=O)Nc1cc(-c2nc3ncncc3[nH]2)n(C)c1 [Compound A-15]	+ (12 ≦ MIC ≦ 32 μg/mL)	++ (4 < MIC < 12 μg/mL)	+ (12 ≦ MIC ≦ 32 μg/mL)	>32 µg/mL	+++ (MIC ≦ 4 μg/mL)	+ (12 ≦ MIC ≦ 32 μg/mL)	+ (12 ≦ MIC ≦ 32 μg/mL)
CN(C)CCCn1cc(NC(=O)c2ccc(F)cc2F)cc1C(=O)Nc1cc(-c2nc3ncccc3[nH]2)n(C)c1 [Compound A-17]	+++ (MIC ≦ 4 μg/mL)	+++ (MIC ≦ 4 μg/mL)	+++ (MIC ≦ 4 μg/mL)	>32 µg/mL	+++ (MIC ≦ 4 μg/mL)	+++ (MIC ≦ 4 μg/mL)	+++ (MIC ≦ 4 μg/mL)
CN(C)CCCn1cc(NC(=O)c2ccc(F)cc2F)cc1C(=O)Nc1cc(-c2nc3ccncc3[nH]2)n(C)c1 [Compound A-18]	+++ (MIC ≦ 4 μg/mL)	+++ (MIC ≦ 4 μg/mL)	+ (12 ≦ MIC ≦ 32 μg/mL)	>32 µg/mL	+++ (MIC ≦ 4 μg/mL)	+++ (MIC ≦ 4 μg/mL)	+ (12 ≦ MIC ≦ 32 μg/mL)
CN(C)CCCn1cc(NC(=O)c2ccc(F)cc2F)cc1C(=O)Nc1cc(-c2nc3ncncc3[nH]2)n(C)c1 [Compound A-19]	+ (12 ≦ MIC ≦ 32 μg/mL)	++ (4 < MIC < 12 μg/mL)	+ (12 ≦ MIC ≦ 32 μg/mL)	>32 µg/mL	+++ (MIC ≦ 4 μg/mL)	+ (12 ≦ MIC ≦ 32 μg/mL)	+ (12 ≦ MIC ≦ 32 μg/mL)
COc1cc(F)ccc1C(=O)Nc1cc(C(=O)Nc2cc(-c3nc4ccccc4[nH]3)n(C)c2)n(CCCN(C)C)c1 [Compound A-20]	–	+++ (MIC ≦ 4 μg/mL)	+++ (MIC ≦ 4 μg/mL)	+ (12 ≦ MIC ≦ 32 μg/mL)	+++ (MIC ≦ 4 μg/mL)	+++ (MIC ≦ 4 μg/mL)	+++ (MIC ≦ 4 μg/mL)
COc1cc(Cl)ccc1C(=O)Nc1cc(C(=O)Nc2cc(-c3nc4ccccc4[nH]3)n(C)c2)n(CCCN(C)C)c1 [Compound A-21]	–	+++ (MIC ≦ 4 μg/mL)	++ (4 < MIC < 12 μg/mL)	+ (12 ≦ MIC ≦ 32 μg/mL)	+++ (MIC ≦ 4 μg/mL)	+++ (MIC ≦ 4 μg/mL)	+++ (MIC ≦ 4 μg/mL)
CN(C)CCCn1cc(NC(=O)c2sc3ccccc3c2Cl)cc1C(=O)Nc1cc(-c2nc3ccccc3[nH]2)n(C)c1 [Compound A-22]	–	++ (4 < MIC < 12 μg/mL)	++ (4 < MIC < 12 μg/mL)	+ (12 ≦ MIC ≦ 32 μg/mL)	++ (4 < MIC < 12 μg/mL)	++ (4 < MIC < 12 μg/mL)	+++ (MIC ≦ 4 μg/mL)
